Laboratory results published in US9393288B2, “Methods of treating diseases associated with PPARγ” (The University of Vermont and State Agricultural College, priority 2012, dated 2016).

Columns and labels:
[1] = system: parenchymal arterioles (PA); assay: Pressurized arteriograph: vascular reactivity and structure of PA from relaxin-treated NP Sprague Dawley rats; format: in vivo, rat; details: for Kind of structural remodeling of PA: normotensive NP rats
Excerpt: Animals and Treatment Groups: All procedures were approved by the Institutional Animal Care and Use Committee and conducted in accordance with the National Institutes of Health Guide for the Care and Use of Laboratory Animals. Female virgin NP Sprague Dawley rats (250-300 g, 14-16 weeks, Charles River, Canada) were used for all experiments and housed in the University of Vermont Animal Care Facility. Animals were randomly selected and grouped as untreated (N=4), treated with recombinant human relaxin-2 (relaxin, 4 μg/hr; N=14), relaxin plus a specific PPARγ inhibitor GW9662 (10 mg/kg daily in food; N=8), or vehicle (20 mM sodium acetate; N=14) for 10 days through osmotic minipumps (Alzet 2ML2, Durect Corp., Cupertino, Calif., USA). GW9662 treatment was started 1 day before and for the duration of relaxin treatment to ensure PPARγ was inhibited. Animals were anesthetized with 3% isoflurane and minipumps implanted subcutaneously in the back of the neck. All animals received post-surgical analgesic (buprenorphine, 50 μg/kg, s.c.). Relaxin infusion was continuous for 10 days until animals were euthanized for vessel experiments and tissue collection. The minipumps used were capable of delivering relaxin for 14 days and thus tissue collection was within this duration.
Vessel Preparation and Pressurized Arteriograph System: After collecting trunk blood, the brain was quickly removed and placed in cold physiological salt solution (PSS). In the first set of experiments, PA between the M1 and M2 region of the MCA territory and the MCA from the same animals were carefully isolated from vehicle- or relaxin-treated animals and mounted on glass cannulas in a dual-chambered arteriograph such that one PA and one MCA from each animal were studied simultaneously. PA were identified as branches off the MCA that penetrated into the brain tissue, as previously described (25). In the second set of experiments, PA from the same brain region as above were dissected from relaxin+GW9662-treated animal and compared to PA from vehicle- and relaxin-treated animals. MCA were not studied in this second set of animals because there was no effect of relaxin on that segment of the vasculature. The proximal cannulas were connected to an in-line pressure transducer and a servo-null pressure control system (Living Systems Instrumentation, Burlington, Vt., USA) that allowed intravascular pressure to be maintained at a set pressure or changed at a variable rate. The distal cannulas were closed during the experiment to avoid flow-mediated responses. Temperature and pH were continuously measured and maintained at 37.0±0.5° C. and 7.40±0.05, respectively. Measurements of inner diameter (ID) and wall thickness (WT) were made via video microscopy (Living Systems Instrumentation).
Vascular Reactivity and Structural Characteristics in PA and MCA: For the first set of experiments, PA and MCA were equilibrated for 1 hour at 25 mmHg, after which myogenic activity was determined by stepwise increases in pressure from 40 to 100 mmHg for PA or 50 to 175 mmHg for MCA. ID and WT were measured at each pressure once stable. Changes in ID and WT were measured in PA only in response to small- (SKCa) and intermediate- (IKCa) conductance calcium-activated potassium channels blockers, apamin (3×10^−7 M) and TRAM-34 (10^−6 M), respectively. PA are unique in that the contribution of endothelium-derived hyperpolarizing factors (EDHF) to tone is greater than most vessels Cipolla et al. (2009) Stroke 40, 1451-1457. Thus, inhibition of SKCa/IKCa channels, a critical component in the EDHF pathway, causes constriction in PA Cipolla et al. (2009) Stroke 40, 1451-1457. We therefore assessed the effect of relaxin on constriction of PA in response to SKCa/IKCa channel inhibition in order to assess this unique pathway. […]

[2] = Conscious blood pressure, non-invasive tail-cuff method, SHR; format: in vivo, rat; details: SHR-F, relaxin 4 μg/hr 14 days
Method: Systemic blood pressures were determined in all groups of animals using a non-invasive tail-cuff method (Chan, S. L., and Cipolla, M. J. (2011) Relaxin causes selective outward remodeling of brain parenchymal arterioles via activation of peroxisome proliferator-activated receptor-gamma. FASEB J 25, 3229-3239). For untreated WKY-F and SHR-F groups, blood pressures were measured on the day the animals were euthanized. For relaxin treated groups, blood pressures were measured on day 0 (baseline, before pump implant), 2, 7 and 14. All animals were trained for 3 days before actual blood pressure measurements were taken.

[3] = relaxin- vs vehicle-treated NP rats
[4] = relaxin- vs vehicle-treated NP rats, all pressures studied

relaxin
Kind of structural remodeling of PA [1]: hypertrophic outward remodeling | Kind of structural remodeling of PA ([1]; listed as Relaxin): outward hypertrophic remodeling | Distensibility of PA ([1]; normotensive rats): without affecting | CSA of PA wall [1, 3]: increased | OD of PA [1, 3]: increased | Passive WT of PA [1, 3]: increased | Response of PA to SKCa/IKCa inhibition (apamin, TRAM-34) [1, 3]: no difference | Tone of PA [1, 3]: did not significantly affect | Active diameter of PA [1, 4]: increase | Passive ID of PA [1, 4]: significantly increased | Blood pressure [2]: did not cause a lowering of blood pressure | Blood pressure ([2]; listed as Relaxin): did not affect
